Tested on: MV4-11 cells
Experiment: Anti-apoptosis protein expression in MV4-11 cells (western blot)
Format: cell-based, human
Details: 24 hours
Experimental: Anti-Apoptosis Protein Expression
MV4-11 cells were seeded on 15 cm dish and cultured overnight. The cells were treated with compound A at 0 (DMSO) or 10 nmol/L in combination with azacitidine at 0 (DMSO) or 1000 nmol/L at final concentration. The assay was performed in duplicate. After twenty-four hours, cells were harvested and lysed with lysis buffer (RIPA Buffer [Thermo Fisher Scientific], 1×Halt Phosphatase Inhibitor Cocktail [Thermo Fisher Scientific], and Protease Inhibitor Cocktail [Sigma-Aldrich]). The samples are centrifuged, and protein concentrations of supernatants were determined using the Pierce (trademark) 660 nm Protein Assay (Thermo Fisher Scientific). Aliquots of 2.0 μg protein/μL were prepared in sample buffer (10 mmol/L dithiothreitol (DTT) [Nacalai Tesque] and 1×SDS sample buffer [Wako Pure Chemical Industries, Ltd.], in lysis buffer), and then were boiled for 5 min.
The samples were separated by electrophoresis and transferred with Trans-Blot (registration symbol) Turbo transfer Pack PVDF (Bio-Rad Laboratories). After blocking with Blocking One (Nacalai Tesque) for 1 hour, each membrane was incubated with antibodies against MCL-1 (#5453, Cell Signaling Technology), BCL2L10 (#3869. Cell Signaling Technology), Survivin (#AF886, R&D Systems), cleaved PARP (#9541, Cell Signaling Technology), or Actin (A2066, Sigma-Aldrich) overnight in a cold room. After washing, the membranes were then incubated with an anti-rabbit IgG HRP-linked antibody (#7074, Cell Signaling Technology) for 1 hour at room temperature. After a final wash, signals for the each proteins were detected using a chemiluminescence reagent ECL-prime Blotting Detection Reagent (GE Healthcare) with a CCD camera (ImageQuant LAS4000. GE Healthcare).

## CCc1nc(C(N)=O)c(Nc2ccc(N3CCC(N4CCN(C)CC4)CC3)c(OC)c2)nc1NC1CCOCC1 [compound A hemifumarate, 6-ethyl-3-({3-methoxy-4-[4-(4-methylpiperazin-1-yl)piperidin-1-yl]phenyl}amino)-5-(tetrahydro-2H-pyran-4-ylamino)pyrazine-2-carboxamide hemifumarate]
10 nmol/L
  expression of anti-apoptosis protein BCL2L10: inhibits
  expression of anti-apoptosis protein MCL-1: inhibits
  expression of anti-apoptosis protein survivin: inhibits
Compound A 10 nmol/L with or without azacitidine 1000 nmol/L
  PARP cleavage: increase
